Reference: patent US10316049B2, “Tank-binding kinase inhibitor compounds” (Gilead Sciences, Inc., priority 2015, dated 2019)

Key:
[1] = biological target: T1, IKKε (Homo sapiens, UniProt Q14164); experiment: TR-FRET enzymatic activity assay, IKKε; format: biochemical; conditions: read-out: IKKϵ IC50; further: full length recombinant IKKε at 0.3 nM
T1 construct: TBK1 and IKKε were expressed and purified as full length recombinant proteins; made in house
T1 sequence (Q14164 1-716): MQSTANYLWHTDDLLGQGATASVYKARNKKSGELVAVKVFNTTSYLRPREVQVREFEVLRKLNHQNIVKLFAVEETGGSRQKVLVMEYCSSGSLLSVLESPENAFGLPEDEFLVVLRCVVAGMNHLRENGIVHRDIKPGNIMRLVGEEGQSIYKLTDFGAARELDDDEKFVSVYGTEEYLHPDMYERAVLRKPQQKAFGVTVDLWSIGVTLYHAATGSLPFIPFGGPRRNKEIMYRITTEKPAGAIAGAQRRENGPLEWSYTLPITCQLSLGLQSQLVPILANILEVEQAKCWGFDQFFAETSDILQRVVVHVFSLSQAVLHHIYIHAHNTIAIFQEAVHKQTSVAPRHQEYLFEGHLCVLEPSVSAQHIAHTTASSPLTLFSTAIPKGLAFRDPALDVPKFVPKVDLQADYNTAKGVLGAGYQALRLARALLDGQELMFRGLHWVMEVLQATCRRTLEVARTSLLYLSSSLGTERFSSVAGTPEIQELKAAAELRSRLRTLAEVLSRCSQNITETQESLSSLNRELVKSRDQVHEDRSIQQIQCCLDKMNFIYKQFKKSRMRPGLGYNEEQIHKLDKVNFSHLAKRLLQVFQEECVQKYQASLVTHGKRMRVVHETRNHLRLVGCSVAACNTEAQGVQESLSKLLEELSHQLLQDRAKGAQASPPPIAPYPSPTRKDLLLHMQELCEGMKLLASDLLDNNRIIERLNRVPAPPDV
Procedure, shortened: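 Full-length recombinant IKKε phosphorylated a biotinylated Ser/Thr peptide for 240 min at 25 °C; EDTA stop. Phospho-peptide detected by TR-FRET with streptavidin-XL665 (125 nM) and Eu-cryptate anti-phospho antibody. Normalised to staurosporine and DMSO controls; IC50 from four-parameter fit, geometric mean of ≥4 runs.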

[2] = biological target: T2, TBK1 (Homo sapiens, UniProt Q9UHD2); experiment: TR-FRET enzymatic activity assay, TBK1; format: biochemical; further: full length recombinant TBK1 at 2.5 nM
T2 construct: TBK1 and IKKε were expressed and purified as full length recombinant proteins; made in house
T2 sequence (Q9UHD2 1-729): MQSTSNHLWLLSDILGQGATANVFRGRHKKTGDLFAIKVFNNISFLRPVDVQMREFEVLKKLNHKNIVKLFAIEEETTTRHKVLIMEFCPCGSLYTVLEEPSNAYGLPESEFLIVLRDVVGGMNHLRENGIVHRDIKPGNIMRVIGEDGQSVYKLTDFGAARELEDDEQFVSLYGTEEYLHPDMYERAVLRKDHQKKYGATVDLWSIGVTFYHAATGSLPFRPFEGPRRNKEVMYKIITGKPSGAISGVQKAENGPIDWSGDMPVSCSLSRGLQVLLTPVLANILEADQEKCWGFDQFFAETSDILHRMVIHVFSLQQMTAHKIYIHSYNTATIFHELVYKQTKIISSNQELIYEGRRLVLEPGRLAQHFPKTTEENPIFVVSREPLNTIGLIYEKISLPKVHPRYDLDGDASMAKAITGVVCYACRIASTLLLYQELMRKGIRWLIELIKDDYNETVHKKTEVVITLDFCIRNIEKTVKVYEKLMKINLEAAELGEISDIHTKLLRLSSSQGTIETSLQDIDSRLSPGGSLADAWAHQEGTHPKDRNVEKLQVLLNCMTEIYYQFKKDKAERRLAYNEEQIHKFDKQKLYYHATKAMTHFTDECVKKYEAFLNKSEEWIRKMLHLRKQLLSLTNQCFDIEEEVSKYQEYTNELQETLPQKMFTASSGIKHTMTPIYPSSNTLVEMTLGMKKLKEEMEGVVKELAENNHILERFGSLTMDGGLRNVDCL
Procedure, shortened: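 Full-length recombinant enzymes phosphorylated a biotinylated Ser/Thr peptide for 240 min at 25 °C, stopped with EDTA. Phosphopeptide detected by TR-FRET (streptavidin XL665, Eu-cryptate anti-phospho antibody). IC50 from four-parameter fits normalized to 1 μM staurosporine and DMSO controls, as geometric means of at least four determinations.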

| IC50 [1] [µM] | IC50 [2] [µM] | Compound |
| --- | --- | --- |
| 0.209 | 0.107 | C[C@H]1C[C@@H](Oc2ccc(-c3cc(NC(=O)C4CC4)ncn3)cc2C#N)CCN1C(=O)CO [Example 112, N-(6-(3-cyano-4-(((2S,4S)-1-(2-hydroxyacetyl)-2-methylpiperidin-4-yl)oxy)phenyl)pyrimidin-4-yl)cyclopropanecarboxamide] |
| 0.0752 | 0.111 | N#Cc1cc(-c2ccnc(NC(=O)[C@H]3C[C@H](O)C3)c2)ccc1O[C@H]1CCN(C(=O)CO)C[C@H]1F [Example 80, (1,3-trans)-N-(4-(3-Cyano-4-(((3R,4S)-3-fluoro-1-(2-hydroxyacetyl)piperidin-4-yl)oxy)phenyl)pyridin-2-yl)-3-hydroxycyclobutane-1-carboxamide] |
| > 1 | > 1 | CC(C)(C)OC(=O)N1CC[C@H](Oc2ccc(-c3cc(NC(=O)C4CC4)ncn3)cc2C#N)C(F)(F)C1 [Example 104, Tert-butyl (S)-4-(2-cyano-4-(6-(cyclopropanecarboxamido)pyrimidin-4-yl)phenoxy)-3,3-difluoropiperidine-1-carboxylate] |
| 0.195 | 0.12 | CO[C@H]1CCN(c2ccc(-c3ccnc(NC(=O)C4CC4)c3)cc2C#N)C1 [Example 94, (S)—N-(4-(3-cyano-4-(3-methoxypyrrolidin-1-yl)phenyl)pyridin-2-yl)cyclopropanecarboxamide] |
| 0.632 | 0.871 | N#Cc1cc(-c2ccnc(NC(=O)[C@H]3[C@@H]4COC[C@@H]43)c2)ccc1OC1CCOCC1 [Example 118, (1R,5S,6R)—N-(4-(3-cyano-4-((tetrahydro-2H-pyran-4-yl)oxy)phenyl)pyridin-2-yl)-3-oxabicyclo[3.1.0]hexane-6-carboxamide] |
| 0.036 | 0.181 | Cn1ccnc1[C@@H]1C[C@H]1C(=O)Nc1cc(-c2ccc(O[C@H]3CCN(C(=O)CO)CC3(F)F)c(C#N)c2)ncn1 [Example 114, (1R,2R)—N-(6-(3-cyano-4-(((S)-3,3-difluoro-1-(2-hydroxyacetyl)piperidin-4-yl)oxy)phenyl)pyrimidin-4-yl)-2-(1-methyl-1H-imidazol-2-yl)cyclopropane-1-carboxamide] |
| 0.322 | 0.186 | Cc1noc([C@@H]2C[C@H]2C(=O)Nc2cc(-c3ccc(OC4CCOCC4)c(C#N)c3)ccn2)n1 [Example 108, (1R,2R)—N-(4-(3-cyano-4-((tetrahydro-2H-pyran-4-yl)oxy)phenyl)pyridin-2-yl)-2-(3-methyl-1,2,4-oxadiazol-5-yl)cyclopropane-1-carboxamide] |
| > 1 | > 1 | N#Cc1cc(-c2ccnc(NC(=O)[C@H]3C[C@@H]3c3ccc(OC(F)(F)F)cc3)c2)ccc1OC1CCOCC1 (relative stereo) [Example 99, (1,2-trans)-N-(4-(3-cyano-4-((tetrahydro-2H-pyran-4-yl)oxy)phenyl)pyridin-2-yl)-2-(4-(trifluoromethoxy)phenyl)cyclopropane-1-carboxamide] |
| > 1 | > 1 | CN(C)C(=O)[C@@H]1C[C@@H]1C(=O)Nc1cc(-c2ccc(O[C@H]3CCN(C(=O)CO)C[C@H]3F)c(C#N)c2)ccn1 [Example 79, (1,2-cis)-N^1-(4-(3-cyano-4-(((3R,4S)-3-fluoro-1-(2-hydroxyacetyl)piperidin-4-yl)oxy)phenyl)pyridin-2-yl)-N^2,N^2-dimethylcyclopropane-1,2-dicarboxamide] |
| 0.0365 | 0.0157 | N#Cc1cc(-c2cc(NC(=O)[C@@H]3C[C@H]3c3cccnc3)ncn2)ccc1O[C@H]1CCN(C(=O)CO)C[C@H]1F [Example 147, (1,2-Trans)-N-(6-(3-cyano-4-(((3R,4S)-3-fluoro-1-(2-hydroxyacetyl)piperidin-4-yl)oxy)phenyl)pyrimidin-4-yl)-2-(pyridin-3-yl)cyclopropane-1-carboxamide] |
| 0.0247 | 0.0103 | Cn1cc(C2CC2C(=O)Nc2cc(-c3ccc(O[C@H]4CCN(C(=O)CO)C[C@H]4F)c(C#N)c3)ccn2)cn1 (stereo partly drawn) [Example 77, N-(4-(3-cyano-4-(((3R,4S)-3-fluoro-1-(2-hydroxyacetyl)piperidin-4-yl)oxy)phenyl)pyridin-2-yl)-2-(1-methyl-1H-pyrazol-4-yl)cyclopropane-1-carboxamide] |

Continued, molecule first:

| Compound | IC50 [1] [µM] | IC50 [2] [µM] |
| --- | --- | --- |
| N#Cc1cc(-c2ccnc(NC(=O)[C@@H]3C[C@H]3C3OCCO3)c2)ccc1OC1CCOCC1 (relative stereo) [Example 44, (1,2-trans)-N-(4-(3-cyano-4-((tetrahydro-2H-pyran-4-yl)oxy)phenyl)pyridin-2-yl)-2-(1,3-dioxolan-2-yl)cyclopropane-1-carboxamide] | 0.192 | 0.0333 |
| C[C@H](O)C(=O)N1CC[C@H](Oc2ccc(-c3ccnc(NC(=O)C4CC4)c3)cc2C#N)C(F)(F)C1 [Example 11, N-(4-(3-cyano-4-(((S)-3,3-difluoro-1-((S)-2 hydroxypropanoyl)piperidin-4-yl)oxy)phenyl)pyridin-2-yl)cyclopropanecarboxamide] | 0.0263 | 0.0102 |
| Cn1cc(C(=O)N2CC[C@H](Oc3ccc(-c4cc(NC(=O)C5CC5)ncn4)cc3C#N)[C@H](F)C2)nn1 [Example 27, N-(6-(3-cyano-4-(((3R,4S)-3-fluoro-1-(1-methyl-1H-1,2,3-triazole-4-carbonyl)piperidin-4-yl)oxy)phenyl)pyrimidin-4-yl)cyclopropanecarboxamide] | 0.0296 | 0.0181 |
| N#Cc1cc(-c2ccnc(NC(=O)C3CC3)c2)ccc1O[C@H]1CCN(C(=O)[C@@H]2CCC(=O)N2)CC1(F)F [Example 14, N-(4-(3-cyano-4-(((S)-3,3-difluoro-1-((S)-5-oxopyrrolidine-2-carbonyl)piperidin-4-yl)oxy)phenyl)pyridin-2-yl)cyclopropanecarboxamide] | 0.0185 | 0.0055 |
| N#Cc1cc(-c2ccnc(NC(=O)[C@@H]3C[C@H]3C=O)c2)ccc1OC1CCOCC1 (relative stereo) [Example 40, (1,2-trans)-N-(4-(3-cyano-4-((tetrahydro-2H-pyran-4-yl)oxy)phenyl)pyridin-2-yl)-2-formylcyclopropane-1-carboxamide] | 0.065 | 0.0615 |
| CN(C)C[C@@H]1C[C@H]1C(=O)Nc1cc(-c2ccc(OC3CCOCC3)c(C#N)c2)ccn1 (relative stereo) [Example 41, (1,2-trans)-N-(4-(3-cyano-4-((tetrahydro-2H-pyran-4-yl)oxy)phenyl)pyridin-2-yl)-2-((dimethylamino)methyl)cyclopropane-1-carboxamide] | 0.0803 | 0.267 |
| N#Cc1cc(-c2cc(NC(=O)C3CC3)ncc2F)ccc1OC1CCOCC1 [Example 4, N-(4-(3-cyano-4-((tetrahydro-2H-pyran-4-yl)oxy)phenyl)-5-fluoropyridin-2-yl)cyclopropanecarboxamide] | 0.327 | 0.0436 |
| N#Cc1cc(-c2ccnc(NC(=O)[C@H]3C[C@H]3F)c2)ccc1O[C@H]1CCN(C(=O)CO)C[C@H]1F [Example 59, (1R,2R)—N-(4-(3-cyano-4-(((3R,4S)-3-fluoro-1-(2-hydroxyacetyl)piperidin-4-yl)oxy)phenyl)pyridin-2-yl)-2-fluorocyclopropanecarboxamide] | 0.0397 | 0.0338 |
| Cc1n[nH]c(C(=O)N2CC[C@H](Oc3ccc(-c4cc(NC(=O)C5CC5)ncn4)cc3C#N)[C@H](F)C2)n1 [Example 30, N-(6-(3-cyano-4-(((3R,4S)-3-fluoro-1-(3-methyl-1H-1,2,4-triazole-5-carbonyl)piperidin-4-yl)oxy)phenyl)pyrimidin-4-yl)cyclopropanecarboxamide] | 0.0074 | 0.0072 |
